From patent publication US20230124862A1, “BISMUTH THIOL COMPOUNDS AND COMPOSITIONS AND METHODS OF TREATING MICROBIAL CO-INFECTIONS” (Microbion Corporation, priority 2020, published 2023)
Converted amounts (≈) assume the structure as drawn. Where two headings read alike, the source gives them in different places.

Columns and labels:
Escherichia coli [1] = conditions: E. coli ATCC 25922; CLSI established QC range; cited from earlier work
[2] = system: P. aeruginosa and A. baumannii; conditions: P. aeruginosa (MMX 103), QC; cited from earlier work
Escherichia coli [3] = assay: Broth microdilution MIC (Example 12); assay type: cell-based
Klebsiella pneumoniae = assay: Broth microdilution MIC (Example 12); assay type: cell-based
Pseudomonas aeruginosa [4] = conditions: P. aeruginosa ATCC 27853; CLSI established QC range; cited from earlier work
Enterobacteriaceae [5] = assay: Broth microdilution MIC (Example 11); assay type: cell-based, E. coli, K. pneumoniae, Enterobacter cloacae
Pseudomonas aeruginosa [6] = assay: Broth microdilution MIC (Example 12); assay type: cell-based
Enterobacteriaceae [7] = conditions: E. coli (MMX 102), QC; cited from earlier work
Acinetobacter baumannii = assay: Broth microdilution MIC (Example 12); assay type: cell-based
[8] = system: Gram-positive aerobic bacteria (S. aureus, MRSA, CA-MRSA); assay: MIC90 against 150 clinical isolates of Gram-positive aerobic bacteria; assay type: cell-based; conditions: S. aureus (50 isolates)
P. aeruginosa [9] = conditions: P. aeruginosa isolate 103; CLSI QC range in parenthesis; cited from earlier work
P. aeruginosa [10] = conditions: P. aeruginosa isolate 103; CLSI QC range in parenthesis; cited from earlier work; remark: listed apart in the source
P. aeruginosa [11] = assay: Broth microdilution MIC (Example 10); assay type: cell-based, Pseudomonas aeruginosa; conditions: initial MIC testing
P. aeruginosa [12] = assay: Checkerboard FIC/FICI assay; assay type: cell-based, Pseudomonas aeruginosa; conditions: during FIC testing
[13] = system: Burkholderia cepacia complex; assay: Checkerboard FIC/FICI assay; assay type: cell-based, Burkholderia spp.; conditions: during FIC testing
[14] = system: Burkholderia cepacia complex; assay type: cell-based, Burkholderia spp.; conditions: initial MIC testing

CC(C)(O/N=C(\C(=O)N[C@@H]1C(=O)N2C(C(=O)[O-])=C(C[n+]3ccccc3)CS[C@H]12)c1csc(N)n1)C(=O)O [CAZ]
QC range of MIC (Escherichia coli [1]): (0.06-0.5) μg/mL | CLSI Quality Control Range (MIC) [2]: (1.4) | MIC (Escherichia coli [3]; E. coli ATCC 25922, ATCC QC organism (Table 102)): 0.25 µg/mL (≈ 0.457 µM) | MIC (Escherichia coli [3]; E. coli ATCC 35218, ATCC QC organism (Table 102)): 0.12 µg/mL (≈ 0.22 µM) | MIC (Escherichia coli [3]; E. coli ATCC 35218, ESBL): 0.12 µg/mL (≈ 0.22 µM) | MIC (Escherichia coli [3]; E. coli ATCC BAA-2471, NDM): >64 µg/mL | MIC (Escherichia coli [3]; E. coli CDC 114, ESBL/KPC): >64 µg/mL | MIC (Escherichia coli [3]; E. coli CDC 118, ESBL/NDM): >64 µg/mL | MIC (Escherichia coli [3]; E. coli CDC 435, NDM): >64 µg/mL | MIC (Escherichia coli [3]; E. coli CDC 451, KPC): 64 µg/mL (≈ 117 µM) | MIC (Escherichia coli [3]; E. coli CDC 503, ESBL/NDM): >64 µg/mL | MIC (Escherichia coli [3]; E. coli MMX 5745, KPC): 32 µg/mL (≈ 58.5 µM) | MIC (Escherichia coli [3]; E. coli MMX 5755, ESBL): >64 µg/mL | MIC (Escherichia coli [3]; E. coli MMX 5756, ESBL): >64 µg/mL | MIC (Escherichia coli [3]; E. coli MMX 5758, ESBL): 16 µg/mL (≈ 29.3 µM) | MIC (Klebsiella pneumoniae; K. pneumoniae ATCC BAA-1705, ATCC QC organism (Table 102)): >64 µg/mL | MIC (Klebsiella pneumoniae; K. pneumoniae ATCC BAA-1705, ESBL/KPC): >64 µg/mL | MIC (Klebsiella pneumoniae; K. pneumoniae CDC 112, KPC): >64 µg/mL | MIC (Klebsiella pneumoniae; K. pneumoniae CDC 113, ESBL/KPC): >64 µg/mL | MIC (Klebsiella pneumoniae; K. pneumoniae CDC 115, ESBL/KPC): >64 µg/mL | MIC (Klebsiella pneumoniae; K. pneumoniae CDC 120, ESBL/KPC): >64 µg/mL | MIC (Klebsiella pneumoniae; K. pneumoniae CDC 126, ESBL/KPC): 4 µg/mL (≈ 7.32 µM) | MIC (Klebsiella pneumoniae; K. pneumoniae CDC 129, ESBL/KPC): >64 µg/mL | MIC (Klebsiella pneumoniae; K. pneumoniae CDC 135, ESBL/VIM): >64 µg/mL | MIC (Klebsiella pneumoniae; K. pneumoniae CDC 138, ESBL/NDM): >64 µg/mL | MIC (Klebsiella pneumoniae; K. pneumoniae CDC 158, ESBL/NDM/OXA): >64 µg/mL | MIC (Klebsiella pneumoniae; K. pneumoniae MMX 9029, ESBL): 4 µg/mL (≈ 7.32 µM) | QC range of MIC (Pseudomonas aeruginosa [4]): (1-4) μg/mL | MIC (Enterobacteriaceae [5]; E. cloacae (MMX 5981), NDM-1, LVX-R, MEM-R, CAZ-R, GEN-R): >32 µg/mL | MIC (Enterobacteriaceae [5]; E. coli (MMX 102), QC): 0.12 µg/mL (≈ 0.22 µM) | MIC (Enterobacteriaceae [5]; E. coli (MMX 5980), NDM-1, LVX-R, MEM-R, CAZ-R, GEN-R): >32 µg/mL | MIC (Enterobacteriaceae [5]; E. coli (MMX 8423), ESBL, LVX-R, CAZ-R, GEN-R): 32 µg/mL (≈ 58.5 µM) | MIC (Enterobacteriaceae [5]; E. coli (MMX 8424), ESBL, CAZ-R): 16 µg/mL (≈ 29.3 µM) | MIC (Enterobacteriaceae [5]; E. coli (MMX 8425), ESBL, LVX-R, CAZ-R, GEN-R): 16 µg/mL (≈ 29.3 µM) | MIC (Enterobacteriaceae [5]; K. pneumoniae (MMX 4622), KPC-2, MEM-R, CAZ-R): >32 µg/mL | MIC (Enterobacteriaceae [5]; K. pneumoniae (MMX 4623), KPC-2, MEM-R, CAZ-R, GEN-R): >32 µg/mL | MIC (Enterobacteriaceae [5]; K. pneumoniae (MMX 4653), KPC-3, LVX-R, MEM-R, CAZ-R): >32 µg/mL | MIC (Enterobacteriaceae [5]; K. pneumoniae (MMX 4683), KPC-2, LVX-R, MEM-R, CAZ-R): >32 µg/mL | MIC (Enterobacteriaceae [5]; K. pneumoniae (MMX 4684), ESBL, MEM-R): 8 µg/mL (≈ 14.6 µM) | MIC (Enterobacteriaceae [5]; K. pneumoniae (MMX 4685), ESBL, LVX-R, MEM-R, CAZ-R): >32 µg/mL | MIC (Enterobacteriaceae [5]; K. pneumoniae (MMX 4694), KPC-3, LVX-R, MEM-R, CAZ-R): >32 µg/mL | MIC (Enterobacteriaceae [5]; K. pneumoniae (MMX 5979), NDM-1, LVX-R, MEM-R, CAZ-R, GEN-R): >32 µg/mL | MIC (Pseudomonas aeruginosa [6]; P. aeruginosa ATCC 27853, ATCC QC organism (Table 102)): 2 µg/mL (≈ 3.66 µM) | MIC (Pseudomonas aeruginosa [6]; P. aeruginosa CDC 230, VIM/OXA): 64 µg/mL (≈ 117 µM) | MIC (Pseudomonas aeruginosa [6]; P. aeruginosa CDC 231, KPC/OXA): >64 µg/mL | MIC (Pseudomonas aeruginosa [6]; P. aeruginosa CDC 241, IMP/OXA): >64 µg/mL | MIC (Pseudomonas aeruginosa [6]; P. aeruginosa CDC 246, NDM/OXA): >64 µg/mL | MIC (Pseudomonas aeruginosa [6]; P. aeruginosa CDC 250, NDM/OXA): >64 µg/mL | MIC (Pseudomonas aeruginosa [6]; P. aeruginosa CDC 356, KPC): 64 µg/mL (≈ 117 µM) | MIC (Pseudomonas aeruginosa [6]; P. aeruginosa CDC 439, IMP): >64 µg/mL | MIC (Pseudomonas aeruginosa [6]; P. aeruginosa CDC 444, VIM): 32 µg/mL (≈ 58.5 µM) | MIC (Pseudomonas aeruginosa [6]; P. aeruginosa CDC 457, VIM): >64 µg/mL | MIC (Pseudomonas aeruginosa [6]; P. aeruginosa CDC 516, KPC/AmpC): 64 µg/mL (≈ 117 µM) | MIC (Pseudomonas aeruginosa [6]; P. aeruginosa CDC 518, KPC/AmpC): 32 µg/mL (≈ 58.5 µM) | CLSI Quality Control Range (MIC) (Enterobacteriaceae [7]): (0.06-0.5) μg/mL | MIC (Acinetobacter baumannii; A. baumannii CDC 273, ESBL/OXA): 64 µg/mL (≈ 117 µM) | MIC (Acinetobacter baumannii; A. baumannii CDC 274, ESBL/OXA): >64 µg/mL | MIC (Acinetobacter baumannii; A. baumannii CDC 275, ESBL/OXA): >64 µg/mL | MIC (Acinetobacter baumannii; A. baumannii CDC 277, ESBL/OXA): >64 µg/mL | MIC (Acinetobacter baumannii; A. baumannii CDC 284, ESBL/OXA): 64 µg/mL (≈ 117 µM) | MIC (Acinetobacter baumannii; A. baumannii CDC 307, OXA): 64 µg/mL (≈ 117 µM) | MIC (Acinetobacter baumannii; A. baumannii CDC 308, ESBL/OXA): 64 µg/mL (≈ 117 µM) | MIC (Acinetobacter baumannii; A. baumannii CDC 311, OXA): >64 µg/mL | MIC (Acinetobacter baumannii; A. baumannii CDC 312, OXA): >64 µg/mL | MIC (Acinetobacter baumannii; A. baumannii CDC 313, ESBL/OXA): >64 µg/mL | MIC (Acinetobacter baumannii; A. baumannii NCTC 13304, OXA): >64 µg/mL | MIC90 ([8]; CA-MRSA): >64 µg/mL | MIC90 ([8]; MRSA): >64 µg/mL | MIC90 ([8]; MSSA): 16 µg/mL (≈ 29.3 µM)

NC[C@H]1O[C@H](O[C@H]2[C@H](O)[C@@H](O[C@H]3O[C@H](CO)[C@@H](O)[C@H](N)[C@H]3O)[C@H](N)C[C@@H]2N)[C@H](N)C[C@@H]1O [TOB]
CLSI QC range of MIC (P. aeruginosa [9]): (0.25-1) μg/mL | CLSI QC range of MIC (P. aeruginosa [10]): (0.25-1) μg/mL | MIC (P. aeruginosa [11]; P. aeruginosa isolate 103, QC strain): 1 µg/mL (≈ 2.14 µM) | MIC (P. aeruginosa [11]; P. aeruginosa isolate 1497 (TOB-R AMK-R, CIP-I, AZT-R, COL-R)): 16 µg/mL (≈ 34.2 µM) | MIC (P. aeruginosa [11]; P. aeruginosa isolate 1530 (TOB-R, AMK-R, CIP-R)): 32 µg/mL (≈ 68.4 µM) | MIC (P. aeruginosa [11]; P. aeruginosa isolate 1553 (TOB-R, AMK-R, CIP-R)): >256 µg/mL | MIC (P. aeruginosa [11]; P. aeruginosa isolate 6322 (MEM-R, TOB-R, AMK-R, CIP-R, AZT-R)): 128 µg/mL (≈ 274 µM) | MIC (P. aeruginosa [11]; P. aeruginosa isolate 6977 (MEM-I, TOB-R, CIP-R, AZT-I)): 128 µg/mL (≈ 274 µM) | MIC (P. aeruginosa [11]; P. aeruginosa isolate 7745 (MEM-R, CIP-R, AZT-R)): 0.5 µg/mL (≈ 1.07 µM) | MIC (P. aeruginosa [11]; P. aeruginosa isolate 7754 (MEM-R, TOB-R, CIP-R, AZT-I)): 32 µg/mL (≈ 68.4 µM) | MIC (P. aeruginosa [11]; P. aeruginosa isolate 7762 (MEM-I, CIP-I)): 1 µg/mL (≈ 2.14 µM) | MIC (P. aeruginosa [11]; P. aeruginosa isolate 7871 (MEM-R, AZT-I)): 0.5 µg/mL (≈ 1.07 µM) | MIC (P. aeruginosa [11]; P. aeruginosa isolate 7874): 0.5 µg/mL (≈ 1.07 µM) | MIC (P. aeruginosa [11]; P. aeruginosa isolate 7886 (MEM-R, CIP-R, AZT-R)): 1 µg/mL (≈ 2.14 µM) | MIC (P. aeruginosa [11]; P. aeruginosa isolate 8797 (MEM-R, TOB-R, AMK-R, CIP-R, AZT-R, COL-R)): >256 µg/mL | MIC (P. aeruginosa [11]; P. aeruginosa isolate 8798 (MEM-R, TOB-R, AMK-R, CIP-R, AZT-R, COL-R)): 32 µg/mL (≈ 68.4 µM) | MIC (P. aeruginosa [11]; P. aeruginosa isolate 9108 (CIP-R, AZT-I)): 0.5 µg/mL (≈ 1.07 µM) | MIC (P. aeruginosa [12]; isolate 103 (ATCC 25922), each agent tested alone for QC, one replicate): 1 µg/mL | MIC (P. aeruginosa [12]; isolate 6322): 128 µg/mL | MIC (P. aeruginosa [12]; isolate 6977): 128 µg/mL | MIC (P. aeruginosa [12]; isolate 7745): 0.5 µg/mL | MIC (P. aeruginosa [12]; isolate 8798): 16 µg/mL | MIC (P. aeruginosa [12]; isolate 9108): 0.5 µg/mL | MIC ([13]; B. cenocepacia isolate 0548): 32 µg/mL | MIC ([13]; B. cenocepacia isolate 0813): 256 µg/mL | MIC ([13]; B. cepacia isolate 0546): 32 µg/mL | MIC ([13]; B. cepacia isolate 1793): 16 µg/mL | MIC ([14]; B. cenocepacia isolate 0548 (CIP-R)): 64 µg/mL (≈ 137 µM) | MIC ([14]; B. cenocepacia isolate 0813 (CPI-I)): 256 µg/mL (≈ 548 µM) | MIC ([14]; B. cepacia isolate 0546): 64 µg/mL (≈ 137 µM) | MIC ([14]; B. cepacia isolate 1793): 64 µg/mL (≈ 137 µM) | MIC ([14]; B. cepacia isolate 1794): 64 µg/mL (≈ 137 µM) | MIC ([14]; B. cepacia isolate 9040): 8 µg/mL (≈ 17.1 µM) | MIC ([14]; B. multivorans isolate 1791): 64 µg/mL (≈ 137 µM) | MIC ([14]; B. multivorans isolate 5665 (CIP-I)): 64 µg/mL (≈ 137 µM) | MIC ([14]; B. multivorans isolate 8952 (CIP-I)): 16 µg/mL (≈ 34.2 µM)
